Test results: US4708954A, “Hypogylcemic oxaluric acid derivatives” (Nippon Zoki Pharmaceutical Co., Ltd., priority 1985, dated 1987)
Counter-ions that a name gives are not always drawn.

Assays:
Wistar-strain male rats = test: Hypoglycemic effect (blood glucose level in fasted, glucose-loaded rats); assay type: in vivo; settings: 100 mg/kg oral, 2 hours later; for Blood Glucose Level: fasted rats with s.c. 20% glucose 0.5 ml/100 g, control 139 ± 3; for inhibition in vivo at 100 mg/kg: Rattus norvegicus, decrease vs control (139 ± 3 mg/dl)
Description: Groups of 7 Wistar-strain male rats (weighing about 200 g) which were fasted for 20 hours were used for measurement of the hypoglycemic effect according to the modified method by Dulin et al. [Dulin, W. L. et al., Proc. Soc. Expl. Med., 107, 245 (1961)]. That is, 0.5 ml/100 g of 20% aqueous solution of glucose was subcutaneously administered to the backs of rats to prevent a decrease in blood glucose level because of the fasting. […] The obtained blood sample was allowed to stand for 30 minutes to complete the coagulation and was centrifuged to obtain the serum. Blood sugar level was measured according to the mutalotase GOD method [Trinder, Ann. Clin. Biochem., 6, 24 (1979)].

[1] = Acute toxicity test (oral, lethal dose by deaths over 7 days); settings: mouse, in vivo, suspended in 0.5% aqueous C.M.C., fasted 20 hours, deaths for 7 days
Description: The test compounds of the present invention suspended in 0.5% aqueous solution of carboxymethylcellulose (C.M.C.) were orally administered to groups of 4 to 6 ddY-strain male mice (weighing about 19 g) which had fasten for 20 hours. The lethal dose was determined by the number of deaths for 7 days thereafter.

| SMILES | Blood Glucose Level (Wistar-strain male rats) [mg/dL] | inhibition in vivo at 100 mg/kg (Wistar-strain male rats) [%] | LD50 at 168 h [1] [mg/kg] |
| --- | --- | --- | --- |
| CCCCNC(=O)NS(=O)(=O)c1ccc(C)cc1 [Tolubutamide, reference compound] | 50 ± 1 | 64 | – |
| CNC(=O)NC(=O)C(=O)O [compound 1, 5-methyloxaluric acid ammonium salt] | 104 ± 7 | 25.2 | – |
| CCNC(=O)NC(=O)C(=O)O [compound 2, 5-ethyloxaluric acid ammonium salt] | 102 ± 4 | 26.6 | 3000 to 4000 |
| CCCCNC(=O)NC(=O)C(=O)O [compound 3, 5-butyloxaluric acid] | 103 ± 5 | 26 | – |
| CCOC(=O)C(=O)NC(=O)NC [compound 12, 5-methyloxaluric acid ethyl ester] | 81 ± 5 | 41.7 | – |
| CCCCNC(=O)NC(=O)C(=O)OC [compound 13, 5-butyloxaluric acid methyl ester] | 88 ± 3 | 36.7 | 1000 to 2000 |
| CCOC(=O)C(=O)NC(=O)NCC(C)C [compound 14, 5-iso-butyloxaluric acid ethyl ester] | 93 ± 2 | 33.1 | – |
| CCCCOC(=O)C(=O)NC(=O)NC [compound 20, 5-methyloxaluric acid butyl ester] | 101 ± 6 | 27.3 | > 4000 |
| CNC(=O)NC(=O)C(=O)OCC(C)C [compound 21, 5-methyloxaluric acid iso-butyl ester] | 115 ± 4 | 17.3 | – |
| CCCCCCCCOC(=O)C(=O)NC(=O)NC [compound 22, 5-methyloxaluric acid octyl ester] | 122 ± 2 | 12.2 | – |
